Reference: patent publication US10676474B2, “1,6-naphthyridine derivatives as CDK4/6 inhibitor” (CSTONE PHARMACEUTICALS, priority 2016, dated 2020)
Values after ≈ are worked out from the molar mass of the structure shown. Where two headings read alike, the source gives them in different places.

Key:
[1] = Thermodynamic solubility test (shake-flask, HPLC); type: physicochemical; details: phosphate buffer, aqueous buffer, thermodynamic from solid; QC samples, pH 7.4; read-out: Thermodynamic solubility pH 7.4
Procedure: The thermodynamic solubility of the compounds was determined by the shake-flask method and HPLC. The solubility of the compounds is an important property that affects drug screening of compounds and the absorption of compounds in animals and humans. A saturated solution of the compound was first given and quantitatively tested by HPLC to obtain the solubility of the compound.
50 mM phosphate buffer solution, pH 7.4.
Not less than 2 mg of the sample powder was weighed into a vial of Whatman miniuniprep. If test of the thermodynamic solubility of a sample in multiple buffer solutions is required, an individual vial is required for each test.
450 μL of the buffer solution (pH 7.4) was added to each Whatman miniuniprep vial.
After the addition of the buffer solution, the Whatman miniuniprep cap with a filter was mounted and pressed above the liquid level so that the filter could contact with the buffer solution during shaking.
And the observation of the solution was recorded.
It was shaked at 550 RPM for 24 hours at room temperature (about 22 to 25° C.).
The Whatman Miniunipreps filter cap was pressed to the bottom to give the filtrate of the sample solubility solution. All sample vials should be filtered before and after insoluble substances and their leakage.
The buffer was diluted 50 folds to give a sample diluent.
Three UV standards from low to high concentration were injected into HPLC, followed by the injection of the dilutions and supernatants of the tested compounds. The tested sample was injected twice.

[2] = physchem; details: phosphate buffer, pH 7.4, aqueous buffer, kinetic from dmso stock
[3] = tested on: LU-01-0393 lung cancer patient-derived tumor tissue xenograft (PDX); assay: In vivo pharmacodynamic study (1), LU-01-0393 PDX; parameters: species or system BALB/c nude mice; details: 60 mg/kg orally daily
Procedure: The in vivo pharmacodynamic experiments were performed on the BALB/c nude mice implanted subcutaneously with the LU-01-0393 lung cancer patient-derived tumor tissue xenograft (PDX).
BALB/c nude mice, female, 6-8 weeks, weighing approximately 17-21 g, were placed in a single ventilated cage (5 mice per cage) under a special pathogen free environment. All of the cages, beddings and water were disinfected before use. All of the animals were permitted free access to a standard certified commercial laboratory diet. A total of 36 mice purchased from Vital River Laboratory Animal Co., LTD, Beijing were used for the study. Each mouse was implanted subcutaneously with a tumor LU-01-0393 FP4 section (20-30 mm^3) in the right back for tumor growth. The dosing initiated when the average tumor volume reached about 150-200 mm^3. The tumor volume was measured twice a week using a two-dimensional caliper, and the volume was measured in mm^3, calculated by the following the formula: V=0.5 a×b^2, wherein, a and b were the long and short diameters of the tumor, respectively. The antitumor efficacy was determined by dividing the average increase in the tumor volume of the animals treated with the compound by the average increase in the tumor volume of the untreated animals.

[4] = target: T1, CDK4/cyclin D1 (Homo sapiens, UniProt P11802); assay: Enzyme activity assay CDK4/cyclin D1 (Lance Ultra); type: biochemical; details: 0.3 nM CDK4/cyclin D1, 350 μM ATP, 180 minutes
T1 construct: purchased Life technology
T1 sequence (P11802 whole entry): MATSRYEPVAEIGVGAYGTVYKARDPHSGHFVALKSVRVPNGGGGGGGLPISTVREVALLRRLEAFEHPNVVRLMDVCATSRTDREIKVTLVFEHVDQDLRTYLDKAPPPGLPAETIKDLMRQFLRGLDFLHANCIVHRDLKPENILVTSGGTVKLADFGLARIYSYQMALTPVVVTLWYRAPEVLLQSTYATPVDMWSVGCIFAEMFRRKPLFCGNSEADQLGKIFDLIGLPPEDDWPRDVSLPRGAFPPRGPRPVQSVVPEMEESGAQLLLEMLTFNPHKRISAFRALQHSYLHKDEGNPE
T1 sequence (P24385 whole entry partner): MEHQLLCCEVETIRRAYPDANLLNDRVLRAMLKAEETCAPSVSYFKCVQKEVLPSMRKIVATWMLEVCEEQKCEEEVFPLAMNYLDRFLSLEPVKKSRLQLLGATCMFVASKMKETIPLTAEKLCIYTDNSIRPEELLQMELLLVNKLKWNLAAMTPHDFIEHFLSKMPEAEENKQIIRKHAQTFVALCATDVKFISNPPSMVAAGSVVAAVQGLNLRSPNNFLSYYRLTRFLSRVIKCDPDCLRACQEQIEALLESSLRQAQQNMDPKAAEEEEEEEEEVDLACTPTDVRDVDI
Procedure: (§1) CDK4/cyclin D1, CDK6/cyclin D1 (Life technology). ULight labeled polypeptide substrates ULight-4E-BP1 and ULight-MBP (PerkinElmer). Europium labeled anti-myelin basic protein antibody and europium labeled rabbit-derived antibody (PerkinElmer). Envision Multi-label Analyzer (PerkinElmer) for signal detection.
(§2) They were respectively dissolved in an enzyme buffer solution comprising: 50 mM hydroxyethylpiperazine ethanesulfuric acid solution at pH 7.5, 1 mM ethylenediaminetetraacetic acid, 10 mM magnesium chloride, 0.01% Brij-35, 2 mM dithiothreitol. After the reaction was begun, the OptiPlate 384-well plate was sealed with a top heat seal film TopSeal-A, and incubated at room temperature for 180 minutes.
(§3) The termination buffer solution of the enzymatic reaction was prepared, and EDTA was dissolved in a 1-fold diluted assay buffer solution. The reaction was terminated and incubated at room temperature for 5 minutes. 5 μL of the assay mixed solution (prepared with europium labeled anti-myelin basic protein antibody and europium labeled rabbit-derived antibody, respectively) was added to the reactions of CDK4/cyclin D1 and CDK6/cyclin D1, respectively, and incubated at room temperature for 60 minutes. The reaction signal was detected by Envision according to the time-resolved fluorescence resonance energy transfer theory.

[5] = tested on: non-small cell lung cancer NCI-H358 model; assay: In vivo pharmacodynamic study (2), NCI-H358 model, tumor volume; parameters: species or system BALB/c nude mice; details: 60 mg/kg orally daily, Table 6-1
Procedure: (§4) The in vivo pharmacodynamic experiments were performed on the BALB/c nude mice implanted subcutaneously with the non-small cell lung cancer NCI-H358 model.
(§5) All of the cages, beddings and water were disinfected before use. All of the animals were permitted free access to a standard certified commercial laboratory diet. A total of 86 mice purchased from Vital River Laboratory Animal Co., LTD, Beijing were used for the study. The animal information of the experiments in Example 34 was as follows: BALB/c nude mice, female, 6-8 weeks, weighing approximately 16-18 g, were placed in a single ventilated cage (4 mice per cage) under a special pathogen free environment. All of the cages, beddings and water were disinfected before use. All of the animals were permitted free access to a standard certified commercial laboratory diet. A total of 56 mice purchased from Shanghai Lingchang Biotechnology Co., Ltd. were used for the study.
(§6) Each mouse was implanted subcutaneously with NCI-H358 tumor cells in the right back for tumor growth. The dosing initiated when the average tumor volume reached about 100-200 mm^3. […] The tumor volume was measured twice a week using a two-dimensional caliper, and the volume was measured in mm^3, calculated by the following the formula: V=0.5 a×b^2, wherein, a and b were the long and short diameters of the tumor, respectively. The antitumor efficacy was determined by dividing the average increase in the tumor volume of the animals treated with the compound by the average increase in the tumor volume of the untreated animals, and the safety of the compound was determined by the change in the body weight of the animal treated with the compound.
TGI: Tumor Growth Inhibition.

[6] = target: T2, CDK6/cyclin D1 (Homo sapiens, UniProt Q00534); assay: Enzyme activity assay CDK6/cyclin D1 (Lance Ultra); type: biochemical; details: 0.8 nM CDK6/cyclin D1, 250 μM ATP, 180 minutes
T2 construct: purchased Life technology
T2 sequence (Q00534 whole entry): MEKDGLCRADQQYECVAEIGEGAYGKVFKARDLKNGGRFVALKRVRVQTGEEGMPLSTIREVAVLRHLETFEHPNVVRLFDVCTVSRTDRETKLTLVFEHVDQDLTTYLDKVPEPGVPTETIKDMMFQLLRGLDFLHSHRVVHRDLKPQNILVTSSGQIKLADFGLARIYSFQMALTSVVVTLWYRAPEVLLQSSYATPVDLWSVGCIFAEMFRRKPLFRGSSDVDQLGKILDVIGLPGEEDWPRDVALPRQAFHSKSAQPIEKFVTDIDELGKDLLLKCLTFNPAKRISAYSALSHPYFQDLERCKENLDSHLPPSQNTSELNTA
T2 sequence (P24385 whole entry partner): as the sequence (P24385 whole entry partner) above
Procedure: as §1
as §2, with “started,” for “begun,”, “TopSeal-A” for “TopSeal-A,”
as §3

[7] = tested on: NCI-H358 cells; assay: Cell viability assay NCI-H358 (CellTiter-Glo); type: cell-based; details: Homo sapiens, 168 h; NCI-H358, incubated for 7 days
Procedure: The NCI-H358 cell line is from the cell bank of the Department of Biology of WuXi Apptec Co. Ltd. Envision Multi-Label Analyzer (PerkinElmer).
1) 100 μL of phosphate buffer solution was added to the peripheral wells of the 384-well plate and 40 μL of NCI-H358 cell suspension was added to the other wells containing 250 NCI-H358 cells. The cell plate was then placed in a carbon dioxide incubator and incubated overnight.
2) A 3-fold gradient dilution was subjected to the tested compounds using Echo. Each compound was diluted by 10 concentration gradients (diluted from 25 μM to 1.27 nM), 100 nL of which was added to the corresponding wells of the cell plate. The cell plate was then placed in a carbon dioxide incubator and incubated for 7 days.
3) 20 μL of Promega CellTiter-Glo reagent was added to each well of the cell plate, and shaken for 10 minutes away from light at room temperature to stabilize the luminescence signal. Readings were performed using a PerkinElmer Envision Multi-label Analyzer.
Table 1 provides the inhibitory activity of the compounds of the present invention against the proliferation of H358 cells.

[8] = tested on: Caco-2 cells; assay: Two-way permeability evaluation assay of Caco-2 cells; details: Caco-2
[9] = as above; details: human, Caco-2, pH 7.4
[10] = In vivo pharmacodynamic study (2), NCI-H358 model, animal weight; parameters: species or system BALB/c nude mice; details: 60 mg/kg orally daily
Procedure: as §4, §5, §6

[11] = Metabolic stability in mouse liver microsomes; type: in vitro ADME; details: 0.5 mg/mL protein, read-out: Mice T1/2
Procedure: (§7) This assay is used to test the metabolic stability of tested substances in rats, mice and human liver microsomes.
(§8) 1) The tested compound with concentration of 1 μM was co-incubated with liver microsomes with a protein concentration of 0.5 mg/mL under a reducing coenzyme II regeneration system in a 37° C. water bath.
(§9) 2) The positive controls include: testosterone (3A4 substrate), propafenene (2D6 substrate) and diclofenac (2C9 substrate). The incubation condition of the positive controls was consistent with that of the compound.
(§10) 3) The reaction time points were: 0, 5, 10, 20, 30 and 60 minutes, and the reaction is terminated at the corresponding time point using a termination solution containing an internal standard. The compounds were also incubated with microsomes for 60 minutes without a reducing coenzyme II regeneration system and served as a negative control.
(§11) 4) Each time point was a single point (n=1).
(§12) 5) The sample was determined by LC/MS/MS, and the compound concentration was shown as the ratio of the peak area of the compound to the peak area of the internal standard (non-standard).
(§13) 6) In the project report summary, the half-life and the clearance rate would be calculated.

[12] = tested on: Caco-2 cells
[13] = Metabolic stability in rat liver microsomes; type: in vitro ADME; details: 0.5 mg/mL protein, read-out: Rats T1/2
Procedure: as §7, §8, §9, §10, §11, §12, §13

[14] = Metabolic stability in human liver microsomes; type: in vitro ADME; details: 0.5 mg/mL protein, read-out: Human T1/2
Procedure: as §7, §8, §9, §10, §11, §12, §13

NC(=O)N1c2ccccc2C=Cc2ccccc21 [Carbamazepine, reference compound]
solubility thermodynamic at 24 h [1]: 450 ± 60 µM (≈ 106 µg/mL) | solubility kinetic at 24 h [2]: 180 ± 15 µM (≈ 42.5 µg/mL)

CC(=O)c1c(C)c2cnc(Nc3cnc(N4CCNCC4)cn3)cc2n(C2CCCC2)c1=O [Example 1, 3-acetyl-1-cyclopentyl-4-methyl-7-[(5-piperazin-1-ylpyrazin-2-yl)amino]-1,6-naphthyridin-2-one]
Gross tumor volume Day 0 ([3]; Day 0): 144 mm^3 | Gross tumor volume Day 7 ([3]; Day 7): 132 mm^3 | Gross tumor volume Day 14 ([3]; Day 14): 182 mm^3 | Gross tumor volume Day 20 ([3]; Day 20): 212 mm^3

CC(=O)c1c(C)c2cnc(Nc3cnc(N4CCN(C(C)C)CC4)cn3)cc2n(C2CCCC2)c1=O [Example 3]
IC50 [4]: 6.1 nM | Gross tumor volume, 0 day [5]: 152 mm^3 | Gross tumor volume, 7 days [5]: 141 mm^3 | Gross tumor volume, 14 days [5]: 159 mm^3 | Gross tumor volume, 17 days [5]: 136 mm^3 | IC50 [6]: 2.9 nM | IC50 [7]: 176 nM | Category Efflux transporter substrate [8]: Less | Category Permeability [8]: High | Papp A→B at 2 h, 2 μM [9]: 10.9 ×10⁻⁶ cm/s | Papp B→A at 2 h, 2 μM [9]: 12.4 ×10⁻⁶ cm/s | efflux ratio at 2 h, 2 μM [9]: 1.14 | solubility kinetic at 24 h [2]: 171 µM (≈ 83.7 µg/mL) | Changes in animal weight, 0 days [10]: 0.0% | Changes in animal weight, 7 days [10]: −1.0% | Changes in animal weight, 14 days [10]: 0.5% | Changes in animal weight, 17 days [10]: 0.8%

CC(=O)c1c(C)c2cnc(Nc3cnc(N4CCN[C@@H](C)C4)cn3)cc2n(C2CCCC2)c1=O [Example 9, 3-acetyl-1-cyclopentyl-4-methyl-7-[[5-[(3S)-3-methylpiperazin-1-yl]pyrazin-2-yl]amino]-1,6-naphthyridin-2-one]
IC50 [4]: 9.1 nM | IC50 [6]: 3.4 nM | IC50 [7]: 196 nM

CC(=O)c1c(C)c2cnc(Nc3cnc(N4CCN(C(C)C)[C@@H](C)C4)cn3)cc2n(C2CCCC2)c1=O [Example 11]
IC50 [4]: 5.6 nM | IC50 [6]: 3.1 nM | IC50 [7]: 278 nM

CC(=O)c1c(C)c2cnc(Nc3cnc(N4CCN(C)C(C)(C)C4)cn3)cc2n(C2CCCC2)c1=O [Example 14]
IC50 [4]: 7.1 nM | IC50 [6]: 2.4 nM | IC50 [7]: 197 nM

CC(=O)c1c(C)c2cnc(Nc3cnc(N4CCN(C(C)C)C(C)(C)C4)cn3)cc2n(C2CCCC2)c1=O [Example 15]
IC50 [4]: 5.7 nM | IC50 [6]: 3.1 nM | IC50 [7]: 262 nM

CC(=O)c1c(C)c2cnc(Nc3cnc(N4CC5CCC(C4)N5C)cn3)cc2n(C2CCCC2)c1=O [Example 19]
IC50 [4]: 7 nM | IC50 [6]: 3.7 nM | IC50 [7]: 214 nM

CC(=O)c1c(C)c2cnc(Nc3cnc(C4CCNCC4)cn3)cc2n(C2CCCC2)c1=O [Example 28]
IC50 [4]: 8.3 nM | IC50 [6]: 3.5 nM | IC50 [7]: 295 nM

CC(=O)c1c(C)c2cnc(Nc3cnc(N4CCN(CCO)CC4)cn3)cc2n(C2CCCC2)c1=O [Example 33]
IC50 [4]: 8.62 nM | IC50 [6]: 4.66 nM | IC50 [7]: 153 nM

CC(=O)c1c(C)c2cnc(Nc3cnc(N4CCN(CCN)CC4)cn3)cc2n(C2CCCC2)c1=O [Example 35]
IC50 [4]: 5.06 nM | IC50 [6]: 2.97 nM | IC50 [7]: 189 nM

CCN1CCN(Cc2ccc(Nc3ncc(F)c(-c4cc(F)c5nc(C)n(C(C)C)c5c4)n3)nc2)CC1 [LY2835219, Abemaciclib]
half-life at 1 μM [11]: 2.36 min | Gross tumor volume, 0 day [5]: 152 mm^3 | Gross tumor volume, 7 days [5]: 97 mm^3 | Gross tumor volume, 14 days [5]: 73 mm^3 | Gross tumor volume, 17 days [5]: 60 mm^3 | Category Permeability [8]: Medium | Category Efflux transporter substrate [12]: Possible | half-life at 1 μM [13]: 6.34 min | half-life at 1 μM [14]: 2.69 min | Changes in animal weight, 0 days [10]: 0.0% | Changes in animal weight, 7 days [10]: −2.9% | Changes in animal weight, 14 days [10]: −3.5% | Changes in animal weight, 17 days [10]: −3.5%
